This is an account of results in patent US10463644B2, “Uses of sesquiterpene lactone compounds and their derivatives in drugs preparation” (ACCENDATECH, priority 2013, dated 2019).

Assay type in all cases: in vivo
Experiment [1] concerns IL-1β secreted by synoviocyte. Briefly: Content of IL-1β in culture supernatant of synoviocyte of RA model rats given test compound. To be noted: rat RA model, dose 30 mg/kg.2d, normal control 0.16 ± 0.034, NaCl 0.49 ± 0.136. The text has this:
(§1) Take Compound 1-50 prepared as per the method according to the present invention and employ the method provided in Reference to prepare model, group drugs and prepare culture supernatant of rat synoviocyte.
(§2) Employ the method provided in Reference to investigate the effects of the test compounds on the synoviocyte to secrete TNF-α and PGE2. Employ the method provided in Reference to investigate the effects of the test compounds on the synoviocyte to secrete IL-1β.
(§3) The experimental data of the test compound 1-50 at a dose of 30 mg/kg.2d as well as the normal control and NaCl group are as follows: […]

Experiment [2] has as its system PGE2 secreted by synoviocyte. Briefly: Content of PGE2 in culture supernatant of synoviocyte of RA model rats given test compound. To be noted: rat RA model, dose 30 mg/kg.2d, normal control 8.34 ± 1.29, NaCl 32.44 ± 10.32.
From the text: as §1, §2, §3

For experiment [3], the system named is TNF-α secreted by synoviocyte. Briefly: Content of TNF-α in culture supernatant of synoviocyte of RA model rats given test compound. To be noted: rat RA model, dose 30 mg/kg.2d, normal control 0.38 ± 0.027, NaCl 0.74 ± 0.098.
From the text: as §1, §2, §3

Turning to `C=C1C(=O)OC2C1CCC(C)=C1CCC(C)(OC(=O)CC)C12` (stereo not drawn) [Compound 3], in experiment [1], the “Content of IL-1β in culture supernatant of synoviocyte (x ± s)” value (“Content of IL-1β” for short) was 0.36 ± 0.039 ng/mL. The “Content of PGE2 in culture supernatant of synoviocyte (x ± s)” value (shortened to “Content of PGE2”) in experiment [2] came to 26.96 ± 1.59 ng/mL. In addition, in experiment [3], the “Content of TNF-α in culture supernatant of synoviocyte (x ± s)” value (shortened to “Content of TNF-α”) is listed as 0.55 ± 0.042 ng/mL.
Take `C=C1C(=O)OC2C1CCC(C)=C1CCC(C)(OC(=O)CCC)C12` (stereo not drawn) [Compound 4]: the “Content of IL-1β” value in experiment [1] is reported as 0.42 ± 0.064 ng/mL. In experiment [2], the “Content of PGE2” value amounted to 24.49 ± 2.67 ng/mL. For the same compound, in experiment [3], the “Content of TNF-α” value stood at 0.56 ± 0.064 ng/mL.
Take `C=C1C(=O)OC2C1CCC(C)=C1CCC(C)(OC(=O)C(C)C)C12` (stereo not drawn) [Compound 6]: the “Content of IL-1β” value in experiment [1] is 0.36 ± 0.054 ng/mL. The “Content of PGE2” value in experiment [2] is 26.75 ± 1.69 ng/mL. Further, in experiment [3], the “Content of TNF-α” value was found to be 0.61 ± 0.072 ng/mL.
As to `C=C1C(=O)OC2C1CCC(C)=C1CCC(C)(OC(=O)CC(C)C)C12` (stereo not drawn) [Compound 7], the “Content of IL-1β” value in experiment [1] came out at 0.39 ± 0.058 ng/mL. The “Content of PGE2” value in experiment [2] came to 22.82 ± 2.67 ng/mL. Moreover, in experiment [3], the “Content of TNF-α” value is given as 0.56 ± 0.044 ng/mL.
Consider `C=C1C(=O)OC2C1CCC(C)=C1CCC(C)(OC(=O)CCl)C12` (stereo not drawn) [Compound 9], for which the “Content of IL-1β” value in experiment [1] came to 0.45 ± 0.064 ng/mL. Also, in experiment [2], the “Content of PGE2” value came out at 27.92 ± 2.67 ng/mL. Besides, the “Content of TNF-α” value in experiment [3] is given as 0.61 ± 0.065 ng/mL.
In the same order, the values of `C=C1C(=O)OC2C1CCC(C)=C1CCC(C)(OC(=O)C(Cl)Cl)C12` (stereo not drawn) [Compound 10] are 0.42 ± 0.069 ng/mL, 25.67 ± 7.12 ng/mL and 0.54 ± 0.055 ng/mL.
As to `C=C1C(=O)OC2C1CCC(C)=C1CCC(C)(OC(=O)CCCCBr)C12` (stereo not drawn) [Compound 12], the “Content of IL-1β” value in experiment [1] is 0.38 ± 0.069 ng/mL. Further, in experiment [2], the “Content of PGE2” value was 24.59 ± 2.35 ng/mL. In addition, the “Content of TNF-α” value in experiment [3] was 0.66 ± 0.043 ng/mL.
With `C=C1C(=O)OC2C1CCC(C)=C1CCC(C)(OC(=O)C=CC)C12` (stereo not drawn) [Compound 15], the “Content of IL-1β” value in experiment [1] is 0.41 ± 0.051 ng/mL. The “Content of PGE2” value in experiment [2] is given as 24.39 ± 2.38 ng/mL. In addition, the “Content of TNF-α” value in experiment [3] turned out to be 0.54 ± 0.045 ng/mL.
`C=C1C(=O)OC2C1CCC(C)=C1CCC(C)(OC(=O)C=C(C)C)C12` (stereo not drawn) [Compound 16]: the “Content of IL-1β” value in experiment [1] is reported as 0.34 ± 0.039 ng/mL. Also, in experiment [2], the “Content of PGE2” value was found to be 27.61 ± 4.21 ng/mL. Also, the “Content of TNF-α” value in experiment [3] stood at 0.57 ± 0.073 ng/mL.
In the same order, the values of `C=C1C(=O)OC2C1CCC(C)=C1CCC(C)(OC(=O)C=Cc3ccccc3)C12` (stereo not drawn) [Compound 17] are 0.37 ± 0.065 ng/mL, 28.95 ± 3.24 ng/mL and 0.66 ± 0.077 ng/mL.
Consider `C=CCCC(=O)OC1(C)CCC2=C(C)CCC3C(=C)C(=O)OC3C21` (stereo not drawn) [Compound 18], for which, in experiment [1], the “Content of IL-1β” value is listed as 0.39 ± 0.029 ng/mL. Besides, the “Content of PGE2” value in experiment [2] was 20.62 ± 2.47 ng/mL. Further, the “Content of TNF-α” value in experiment [3] amounted to 0.64 ± 0.072 ng/mL.
On to `C#CCCCC(=O)O[C@]1(C)CCC2=C(C)CC[C@H]3C(=C)C(=O)O[C@@H]3[C@H]21` [Compound 19], for which the “Content of IL-1β” value in experiment [1] is reported as 0.42 ± 0.091 ng/mL. The “Content of PGE2” value in experiment [2] is 26.45 ± 5.21 ng/mL. In experiment [3], the “Content of TNF-α” value worked out at 0.62 ± 0.056 ng/mL.
For `C=C1C(=O)OC2C1CCC(C)=C1CCC(C)(OC(=O)CCc3ccccc3)C12` (stereo not drawn) [Compound 20], in that order: 0.34 ± 0.056 ng/mL, 27.38 ± 1.39 ng/mL and 0.58 ± 0.045 ng/mL.
In the case of `CC1=C2CC[C@@](C)(O)[C@@H]2[C@H]2OC(=O)[C@@H](CN(C)C)[C@@H]2CC1` [Compound 22], the “Content of IL-1β” value in experiment [1] (30 mg/kg) amounted to 0.34 ± 0.038 ng/mL. In addition, the “Content of PGE2” value in experiment [2] (30 mg/kg) was found to be 24.69 ± 4.19 ng/mL. Further, the “Content of TNF-α” value in experiment [3] (30 mg/kg) was 0.61 ± 0.082 ng/mL.
For `COC[C@@H]1C(=O)O[C@H]2[C@H]1CCC1(CC1)[C@@H]1CCC3(CC3)[C@H]21` [Compound 30], in experiment [1], the “Content of IL-1β” value came out at 0.38 ± 0.049 ng/mL. The “Content of PGE2” value in experiment [2] turned out to be 25.37 ± 4.21 ng/mL. The “Content of TNF-α” value in experiment [3] is 0.65 ± 0.057 ng/mL.
As to `O=C1O[C@H]2[C@@H](CCC3(CC3)[C@@H]3CCC4(CC4)[C@H]23)[C@@H]1CSc1ccccc1` [Compound 31], the “Content of IL-1β” value in experiment [1] came out at 0.39 ± 0.051 ng/mL. In addition, the “Content of PGE2” value in experiment [2] came out at 24.41 ± 1.65 ng/mL. The “Content of TNF-α” value in experiment [3] came to 0.62 ± 0.056 ng/mL.
Take `O=C1O[C@H]2[C@@H](CCC3(CC3)[C@@H]3CCC4(CC4)[C@H]23)[C@@H]1CSCc1ccccc1` [Compound 32]: the “Content of IL-1β” value in experiment [1] was found to be 0.37 ± 0.047 ng/mL. In addition, the “Content of PGE2” value in experiment [2] worked out at 22.75 ± 4.25 ng/mL. The “Content of TNF-α” value in experiment [3] turned out to be 0.64 ± 0.044 ng/mL.
On to `O=C1O[C@H]2[C@@H](CCC3(CC3)[C@@H]3CCC4(CC4)[C@H]23)[C@@H]1CNCc1ccccc1` [Compound 33], for which, in experiment [1], the “Content of IL-1β” value worked out at 0.41 ± 0.052 ng/mL. The “Content of PGE2” value in experiment [2] was 26.64 ± 2.67 ng/mL. In experiment [3], the “Content of TNF-α” value is 0.63 ± 0.054 ng/mL.
In the same order, the values of `O=C1O[C@H]2[C@@H](CCC3(CC3)[C@@H]3CCC4(CC4)[C@H]23)[C@@H]1CNCCO` [Compound 34] are 0.35 ± 0.059 ng/mL, 24.61 ± 3.24 ng/mL and 0.54 ± 0.067 ng/mL.
As to `CC1CCN(C[C@@H]2C(=O)O[C@@H]3C4C(CCC45CC5)C4(CC[C@@H]23)CC4)CC1` (stereo partly drawn) [Compound 36], the “Content of IL-1β” value in experiment [1] was 0.29 ± 0.064 ng/mL. Further, in experiment [2], the “Content of PGE2” value came out at 25.64 ± 2.14 ng/mL. In experiment [3], the “Content of TNF-α” value came to 0.66 ± 0.045 ng/mL.
For `CN1CCN(CC2C(=O)O[C@@H]3[C@@H]4[C@@H](CCC45CC5)C4(CC[C@@H]23)CC4)CC1` (stereo partly drawn) [Compound 37], in that order: 0.31 ± 0.037 ng/mL, 27.94 ± 2.69 ng/mL and 0.59 ± 0.035 ng/mL.
On to `O=C1O[C@H]2[C@@H](CCC3(CC3)[C@@H]3CCC4(CC4)[C@H]23)[C@@H]1CN1CCOCC1` [Compound 38], for which the “Content of IL-1β” value in experiment [1] came out at 0.35 ± 0.062 ng/mL. Moreover, the “Content of PGE2” value in experiment [2] was found to be 19.67 ± 3.14 ng/mL. In addition, in experiment [3], the “Content of TNF-α” value is reported as 0.67 ± 0.045 ng/mL.
With `O=C1O[C@H]2[C@@H](CCC3(CC3)[C@@H]3CCC4(CC4)[C@H]23)[C@@H]1CN1CCCC1` [Compound 39], the “Content of IL-1β” value in experiment [1] worked out at 0.34 ± 0.095 ng/mL. Besides, in experiment [2], the “Content of PGE2” value came to 28.35 ± 2.15 ng/mL. In experiment [3], the “Content of TNF-α” value came to 0.52 ± 0.056 ng/mL.
Turning to `CN(CCO)C[C@@H]1C(=O)O[C@H]2[C@H]1CCC1(CC1)[C@@H]1CCC3(CC3)[C@H]21` [Compound 40], in experiment [1], the “Content of IL-1β” value is on record as 0.31 ± 0.061 ng/mL. The “Content of PGE2” value in experiment [2] is 25.34 ± 3.57 ng/mL. For the same compound, the “Content of TNF-α” value in experiment [3] was 0.48 ± 0.078 ng/mL.
Consider `CCCCN(C)C[C@@H]1C(=O)O[C@H]2[C@H]1CCC1(CC1)[C@@H]1CCC3(CC3)[C@H]21` [Compound 41], for which, in experiment [1], the “Content of IL-1β” value was 0.41 ± 0.054 ng/mL. In experiment [2], the “Content of PGE2” value was found to be 26.63 ± 1.59 ng/mL. The “Content of TNF-α” value in experiment [3] was found to be 0.45 ± 0.056 ng/mL.
For `O=C1O[C@H]2[C@@H](CCC3(CC3)[C@@H]3CCC4(CC4)[C@H]23)[C@@H]1Cn1cc(CCCCO)nn1` [Compound 42], in that order: 0.36 ± 0.059 ng/mL, 22.58 ± 4.21 ng/mL and 0.58 ± 0.055 ng/mL.
With `O=C1O[C@H]2[C@@H](CCC3(CC3)[C@@H]3CCC4(CC4)[C@H]23)[C@@H]1Cn1cc(-c2ccccc2)nn1` [Compound 43], the “Content of IL-1β” value in experiment [1] was 0.43 ± 0.062 ng/mL. In addition, the “Content of PGE2” value in experiment [2] was 24.64 ± 3.95 ng/mL. The “Content of TNF-α” value in experiment [3] turned out to be 0.55 ± 0.045 ng/mL.
